Measured values from patent publication US10351883B2, “Compounds for increasing lipid synthesis and storage” (NUtech Ventures, priority 2015, dated 2019).

Test system: Chlamydomonas reinhardtii
Assay: 8-point dose response assay (0.25-30 μM)
Format: cell-based
Parameters: reference not given here
Conditions: 8-point dose response, Nile Red lipid accumulation; for Dose Response Assay 0.25 μM: 0.25 μM compound; for Dose Response Assay 0.625 μM: 0.625 μM compound; for Dose Response Assay 1.25 μM: 1.25 μM compound; for Dose Response Assay 2.5 μM: 2.5 μM compound; for Dose Response Assay 5 μM: 5 μM compound; for Dose Response Assay 10 μM: 10 μM compound; for Dose Response Assay 15 μM: 15 μM compound; for Dose Response Assay 30 μM: 30 μM compound
Experimental: A large scale in vivo high throughput screen (HTS) was performed to identify small compounds that stimulate lipid production and accumulation using the model organism Chlamydomonas reinhardtii. The HTS employed a 384-well microplate format in which cells were allowed to grow in the presence of the test compounds at 10 μM final concentration for 72 hours.
The screening library included 43,736 compounds (ChemBridge, Corp). […] A sub-set of compounds were retested using an 8-point dose response assay (0.25-30 μM). Compounds were further assessed visually using a Nikon Ti-inverted microscope (60×) to reconfirm lipid droplet accumulation was induced.

| Compound | Dose Response Assay 0.25 μM | Dose Response Assay 0.625 μM | Dose Response Assay 1.25 μM | Dose Response Assay 2.5 μM | Dose Response Assay 5 μM | Dose Response Assay 10 μM | Dose Response Assay 15 μM | Dose Response Assay 30 μM |
| --- | --- | --- | --- | --- | --- | --- | --- | --- |
| Cc1ccc(S(=O)(=O)c2ccc(-c3ccc([N+](=O)[O-])cc3)cc2)cc1 [Compound 2] | 0.96 | 1.01 | 0.94 | 0.99 | 1.1 | 1.53 | 1.34 | 2.11 |
| Cc1cccc(N2CCN(Cc3ccc([N+](=O)[O-])cc3)CC2)c1C [Compound 5] | 0.97 | 0.85 | 0.80 | 0.91 | 1.28 | 2.07 | 1.96 | 2.81 |
| O=C(Nc1ccc([N+](=O)[O-])cc1)c1ccccc1Cl [Compound 11] | 1.02 | 1.12 | 0.97 | 0.93 | 1.46 | 2.78 | 2.28 | 1.78 |
| Cc1c(C(=O)Nc2ccc(F)c(F)c2)cccc1[N+](=O)[O-] [Compound 17] | 1.09 | 1.03 | 0.89 | 0.89 | 1.07 | 0.92 | 1.04 | 1.67 |
| CC(=O)Nc1ccc(S(=O)(=O)Nc2cc([N+](=O)[O-])ccc2C)cc1 [Compound 18] | 1.01 | 0.97 | 0.89 | 1.13 | 1.17 | 1.19 | 1.31 | 1.29 |
| CC(=O)c1nc2cc([N+](=O)[O-])ccc2n1Cc1ccccc1 [Compound 23] | 1.02 | 1 | 0.79 | 0.78 | 1.04 | 1.1 | 1.43 | 1.15 |
| COc1ccc(C(=O)NCCN2CCOCC2)cc1[N+](=O)[O-] [Compound 24] | 1.13 | 0.87 | 0.84 | 0.97 | 0.99 | 1.18 | 1.19 | 1.25 |
| C=CCn1c(SCC(=O)O)nnc1-c1ccc([N+](=O)[O-])cc1 [Compound 25] | 1.15 | 1.13 | 0.99 | 1.02 | 1 | 1 | 1.33 | 1.34 |
| Cc1ccsc1C=C(C#N)c1nc(-c2ccc([N+](=O)[O-])cc2)cs1 [Compound 30] | 1.15 | 1.05 | 1.16 | 0.84 | 0.99 | 0.82 | 1.37 | 1.73 |
| Cc1cc(C)c(NC(=O)COc2ccccc2[N+](=O)[O-])c(C)c1 [Compound 35] | 1.09 | 1.49 | 1.23 | 1.96 | 1.91 | 2.65 | 2.5 | 2.51 |
| O=C(Nc1ccc(Cc2ccncc2)cc1)c1ccc([N+](=O)[O-])cc1Cl [Compound 37] | 1.04 | 0.97 | 1.39 | 1.85 | 1.93 | 1.76 | 1.16 | 1.15 |
| O=C(Nc1ccc([N+](=O)[O-])cc1)c1cccc(Cl)c1Cl [Compound 38] | 1.06 | 1.38 | 1.23 | 2.23 | 2.64 | 2.94 | 2.61 | 2 |
| O=[N+]([O-])c1ccccc1CN1CCN(CC2CC3C=CC2C3)CC1 (centres unmarked) [Compound 39] | 1.17 | 1.13 | 0.99 | 1.18 | 1.18 | 0.88 | 1.57 | 1.38 |
| COc1ccc(C(=O)c2ccc(N3CCN(C)CC3)c([N+](=O)[O-])c2)cc1 [Compound 45] | 0.93 | 0.99 | 1.57 | 2.3 | 3.61 | 2.02 | 2.06 | 1.56 |
| Cc1ccc(C(=O)c2ccc(N3CCN(C)CC3)c([N+](=O)[O-])c2)cc1 [Compound 46] | 1.23 | 0.96 | 0.94 | 1.61 | 2.31 | 2.75 | 2.63 | 1.78 |
| Cc1c(NC(=O)COc2ccc(Br)cc2)cccc1[N+](=O)[O-] [Compound 47] | 0.90 | 0.81 | 0.91 | 1.3 | 0.95 | 1.37 | 1.27 | 1.19 |
| O=C(Nc1ccccc1C(=O)NCc1ccccc1)c1ccc([N+](=O)[O-])cc1 [Compound 53] | 1.06 | 1.38 | 1.13 | 1.1 | 1.42 | 1.57 | 1.61 | 2.49 |
| Cc1ccc(C(=O)Nc2ccccc2C(=O)NC(C)C)cc1[N+](=O)[O-] [Compound 54] | 1.05 | 1.53 | 2.13 | 2.32 | 2.79 | 1.73 | 1.78 | 1.58 |
| Cc1c(C(=O)Nc2ccccc2C(=O)NCc2ccccc2)cccc1[N+](=O)[O-] [Compound 55] | 1.3 | 1.77 | 2.01 | 2.27 | 2.23 | 2.04 | 2.26 | 2.77 |
